Results published in patent publication US20080119548A1, “Control Of Feeding Behavior By Changing Neuronal Energy Balance” (priority 2004, published 2008).

Columns and labels:
[1] = tested on: BALB/c male mice; experiment: Measurement of food intake after i.c.v. or i.p. injection; assay type: in vivo
Description: Male BALB/c mice (7-9 weeks) were purchased from Charles River Laboratories (and housed in a controlled-light (12 hr light/12 hr dark cycle) environment (lights on 0200-1400 h) and allowed ad libitum access to standard laboratory chow and water. For fasting, food was withdrawn from cage at the onset of the dark cycle for 24 hr, but ad libitum access to water was allowed.
(§1) Mice were implanted with permanent stainless steel cannulae into the lateral ventricle of the brain 0.6 mm caudal to Bregma, 1.2 mm lateral to the midline, and sunk to a depth of 2.2 mm below the surface of the skull. Implanted mice were housed in individual cages and utilized for i.c.v. and i.p. injections as indicated. C75 dissolved in RPMI1640 (Gibco-BRL), AICAR (Toronto Research Chemicals Inc) or compound C (46) (FASgen, Inc.) in saline was injected i.c.v., such that desired dose could be administered in a volume of 2.5 μl, while control groups received vehicle only. Injections were done immediately preceding dark onset and food intake measurements were taken at 1 hr (0-1 hr interval), 3 hr (1-3 hr interval), and 24 hr (3-24 hr interval) after dark onset. C75 i.p./AICAR i.c.v. treatment groups were i.p. injected with 5 mg/kg bodyweight C75 dissolved in […] of glucose-free RPMI 1 hr before the dark onset, followed by 3 μg/2.5 μl saline i.c.v. AICAR immediately preceding the dark onset. Control groups received 200 μl of glucose free RPMI 1 hr before lights off and 2.5 μl of saline. Administration of i.p. compound C (10 or 30 mg/kg bodyweight) or C75 (10 mg/kg bodyweight) was followed by food intake measurement at the same times indicated.

[2] = Changes in bodyweight 24 hr after i.c.v. injection; assay type: in vivo, mice; conditions: C75 10 μg i.c.v.
From the text: as §1, with “(d) Changes in bodyweight 24 hr after i.c.v. injection of C75, AICAR or compound C (n=4-10). Mice” for “Mice”, “[…],” for “C (46) (FASgen,”, “[…].” for “C75 i.p./AICAR i.c.v.”

[3] = tested on: hypothalamic AMPKα (α1 and α2); experiment: Western blot of phosphorylated AMPKα in hypothalamus; assay type: in vivo, mice; conditions: for reduction of levels of pAMPKα (α1 and α2) in the hypothalamus vs vehicle: C75 i.c.v. (5 μg or 10 mg)
Description: Hypothalami were dissected using as landmarks the optic chiasm rostrally, and the mammillary bodies caudally to a depth of 2 mm. Dissected hypothalamic and liver tissue were immediately frozen in liquid nitrogen. Tissues were homogenized in 200 μl of lysis buffer (50 mM Tris-HCl, pH 7.5, 250 mM sucrose, 5 mM sodium pyrophosphate, 50 mM NaF, 1 mM EDTA, 1 mM EGTA, 1 mM DTT, 0.5 mM PMSF, 0.1 mM benzamidine, 50 μg/ml leupeptin, 50 μg/ml soybean trypsin inhibitor). SDS detergent was added to a final 0.2%, and lysates were boiled for 5 min. After the supernatant was harvested, protein concentration was determined by BCA kit (Bio Rad). Phosphorylation of AMPKα was determined on a 4-15% gradient SDS-polyacrylamide gel using anti-phospho-AMPKα (α1 and α2, Thr172) antibody (1:1000, Cell Signaling). Anti-AMPKαt antibody (α1 and α2, 1:1000, Cell Signaling) was used as a loading control.

[4] = tested on: NPY mRNA; experiment: In situ hybridization of NPY in the arcuate nucleus; assay type: in vivo; conditions: C75-treated (24 hr) mice
Description: Anti-sense DIG-labeled NPY riboprobe was generated from a plasmid containing the NPY gene (XM004941). […] For double fluorescent in situ hybridization, DIG-labeled riboprobe was generated from plasmid containing AMPKα2 gene (pEBGα2, a gift from L. A. Witters) for AMPKα2 (FITC) and biotin-labeled riboprobe was used for NPY (Texas Red). Sheep FITC-conjugated anti-DIG antibody (1:50, Roche) was incubated in TNB buffer (100 mM Tris-HCl pH 7.5, 150 mM NaCl, and 0.5% blocking reagent) for FITC detection. Streptavidin-Texas Red (1:50, Amersham Pharmacia), rabbit anti-Texas Red antibody (1:50, Molecular Probes), goat biotin-conjugated anti-rabbit IgG antibody (1:50, Santa Cruz Biotechnology) and streptavidin-Texas Red (1:30) were incubated serially in TNB buffer for Texas Red detection.
Images of in situ hybridization and immunohistochemistry were visualized using an Axiocam HRc digital camera (Carl Zeiss) and images were acquired using Improvision Openlab software, and quantified by NIH Image program (Macro).

[5] = tested on: pCREB; experiment: Immunohistochemistry of pCREB in the arcuate nucleus; assay type: in vivo, mice; conditions: C75-treated (24 hr) mice
Description: Free-floating sections were blocked in PBS containing 5% goat serum, 0.1% BSA, 0.05% Triton-X100, 1 mM NaF for 1 hr at room temperature and incubated with anti-phospho-AMPKα (α1 and α2) antibody (1:100) or anti-phospho-CREB antibody (1:500, Cell Signaling) in PBS containing 1% goat serum, 0.1% BSA, 0.05% Triton-X100, 1 mM NaF overnight at 4° C. Signal was visualized by Vectastain ABC kit (Vector). Images of in situ hybridization and immunohistochemistry were visualized using an Axiocam HRc digital camera (Carl Zeiss) and images were acquired using Improvision Openlab software, and quantified by NIH Image program (Macro).

[6] = tested on: lean, diet-induced obese (DIO), and genetically obese (ob/ob) mice; conditions: cited from earlier work

SMILES: C=C1C(=O)OC(CCCCCCCC)C1C(=O)O (centres unmarked) [C75]
- reduction in food intake over 24 hr ([1]; C75 5 mg i.c.v., p<0.05): 20.3%
- food intake at 1 hr, % of control (RPMI/saline) ([1]; C75 5 mg/kg bodyweight i.p. 1 hr before dark onset, saline i.c.v., p<0.01): 37.5 % of control
- reduction in food intake over 24 hr ([1]; C75 10 mg i.c.v., p<0.01): 37.7%
- food intake, % of control ([1]; C75 10 mg/kg bodyweight i.p., 0-1 hr): 8.3 % of control
- food intake, % of control ([1]; C75 10 mg/kg bodyweight i.p., 1-3 hr): 23.3 % of control
- food intake, % of control ([1]; C75 10 mg/kg bodyweight i.p., 3-24 hr): 30.1 % of control
- total 24 hr-food consumption, % of control ([1]; C75 10 mg/kg bodyweight i.p., total 24 hr, p<0.001): 26.3 % of control
- food intake during the 1-3 and 3-24 hr time intervals ([1]; C75 i.c.v., dose-dependent): significantly reduced food intake
- bodyweight [2]: reduction in body weight
- level of hypothalamic pAMPKα in fasted mice ([3]; 24 hr fasting, then C75 i.p. (10 mg/kg bodyweight), vs RPMI control): profoundly reduced
- levels of pAMPKα in the hypothalamus ([3]; C75 10 mg/kg body weight i.p., 30 min and 3 hr): significantly reduced
- reduction of levels of pAMPKα (α1 and α2) in the hypothalamus vs vehicle ([3]; 30 min): three
- reduction of levels of pAMPKα (α1 and α2) in the hypothalamus vs vehicle ([3]; 3 hr): six-fold
- hypothalamic pAMPKα level ([3]; i.p. C75 and i.c.v. saline, 30 min after i.c.v. injection): profound decrease
- NPY mRNA expression in the arcuate nucleus, % of control [4]: 66 % of control
- level of pCREB in the arcuate nucleus, % of control [5]: 39 % of control
- weight loss and anorexia [6]: profound weight loss and anorexia
